Values of other authors as cited in patent publication US11122797B2, “Pest repellent material” (JGC CATALYSTS AND CHEMICALS LTD., priority 2017, dated 2021).

Conditions: within 6 hours

CCN(CC)C(=O)c1cccc(C)c1 [DEET, N, N-diethyl-m-toluamide]
DEET applied to the skin transdermally absorbed: about 50%
